Where two headings read alike, the source gives them in different places. Values belong to the compound of their own block, whether it stands above or below them.
Key:
[1] = pH 7.4 phosphate buffer solution, cited from earlier work; for ΦT triplet quantum yield: previously reported values
[2] = Femtosecond broadband transient absorption spectroscopy of the thiothymine series (intersystem crossing, triplet yield); format: physicochemical
Method: Femtosecond transient absorption spectroscopy was performed using a Ti— Sapphire regenerative amplifier laser system (Libra-HE, Coherent, Inc.; 800 nm, 100 fs, 4.0 W at 1 kHz). 2.6 W of the 800 nm beam were used to pump an optical parametric amplifier (TOPAS, Quantronix/Light Conversion) to generate the excitation beam at selected wavelengths of 320, 335, and 360 nm. Contributions to the excitation beam from other wavelengths and polarizations were removed by a reflective wavelength filter (λ-filter) and a Glan-Taylor polarizer, respectively, and the polarization was randomized using a depolarizing plate in order to prevent rotational effects from contributing to the dynamics, as described in details elsewhere.
A Helios spectrometer (Ultrafast Systems, LLC.) was used for pump-probe measurements. A fraction of the fundamental (800 nm) beam from the Libra-HE was used to generate white light continuum (WLC). The Helios spectrometer uses an optical delay line with a maximum delay of ˜3 ns for the 800 nm beam, which was used to pump a continuously-moving 2 mm CaF2 plate for generation of the WLC broadband probe pulse covering the spectral range from ˜320-700 nm. The probe light was then passed through a 730 nm low-pass dichroic optical filter, so as to block residual fundamental beam and to avoid saturating the complementary metal-oxide-semiconductor (CMOS) detectors. The probe pulse was then split into two beams, both of which were recollimated and focused into the optical fibers leading to their respective CMOS detectors. In this setup, one of the beams serves as reference, while the other is used to probe the sample of interest. A synchronized chopper wheel was used to block every other pump pulse, such that the difference in absorption between two consecutive measurements gives the transient spectrum. The excitation beam was attenuated to 1 μJ/pulse at the sample using a neutral density optical filter before entering the spectrometer. The excitation pulse was focused to a beam diameter three times larger than that of the probe beam at the sample position. Detection time windows of 20 and 200 ps were used in this work.
All solutions were prepared using pH 7.4 aqueous phosphate buffer, with a total phosphate concentration of 16 mM. The solution was continuously stirred in a 2 mm optical path length quartz cell (Starna Cells, Inc.) using a Teflon-coated magnetic stirring bar so as to bring fresh sample to the pump-probe region for each measurement. The solution in the cuvette was replaced with a fresh sample, from the same stock solution, every 5-7 scans, so that all scans had no more than 5% decrease in absorbance at the lowest-energy absorption-band maximum as determined by steady-state absorption spectroscopy.
All broadband transient absorption data were corrected for group velocity dispersion (GVD) of the WLC using a home-made LabView program (National Instruments, Inc.) as previously described. 3 Analysis of transient absorption kinetics was performed in Igor Pro 6.32A (WaveMetrics, Inc.) using the target analysis method, as described previously, and a sequential kinetic model convoluted with an instrument response function of ˜200 fs (FWHM). The instrument response was determined from the coherence signal of neat methanol generated at the sample cell. Global fitting analysis was performed using 15 to 30 representative kinetic traces covering the full range of probe wavelengths. At least three independent datasets (i.e., recorded on three different days) were used in the analysis and all uncertainties are reported as twice the standard deviation of the average lifetime. Decay associated spectra shown in FIG. 7A were extracted from the global fitting analysis of the transient decay traces taken every third probe wavelength across the entire WLC range.

[3] = O2-saturated acetonitrile solution; previously measured / standard value; cited from earlier work
[4] = cited from earlier work
[5] = Femtosecond to microsecond transient absorption spectroscopy of the thiouracil series (intersystem crossing, triplet yield, triplet decay, triplet-triplet extinction)
From the text: Briefly, 800 nm, 100 fs fundamental pulses were generated with a Ti-Sapphire regenerative amplifier laser system (Libra-HE, Coherent, Inc.: 4.0 W, 1 kHz). The fundamental beam was used to produce pump wavelengths of 320, 335, and 350 nm via an optical parametric amplifier (TOPAS, Quantronix/Light Conversion). Unwanted wavelengths were removed from the pump beam using a reflective wavelength filter and a Glan-Taylor polarizer. A fraction of the remaining fundamental beam was focused into a continuously moving CaF2 plate (2 mm thick) to generate broadband white light probe pulses (320-700 nm). The intensity of the excitation beam was attenuated to 1 mJ per pulse at the sample position. The polarization of the pump beam was randomized before being focused into the sample to overlap with the white light continuum probe at a 3:1 beam diameter ratio. Pump-probe experiments were collected using a Helios spectrometer (Ultrafast Systems, LLC) and a home-made data acquisition software (LabView, National Instruments, Inc.).
Solutions of the 2tUra, 4tUra, and 2,4dtUra derivatives were prepared in aqueous phosphate-buffered saline at pH 7.4. […] Solutions were investigated in 2 mm optical path length quartz cells and the irradiated volume was continuously refreshed by stirring with a Teflon-coated magnetic stir bar. Contributions to the transient data from any putative photoproduct formation were prevented by replacing the solution with fresh stock solution every 5 scans, or before 6% sample degradation (as monitored by a decrease in the steady-state absorbance of the lowest-energy absorption band). The UVA excitation wavelength used was varied depending on the absorption spectrum of the specific thiouracil derivative investigated. For 2tUra, an excitation wavelength of 320 nm was used, whereas 2,4dtUra was excited at 335 and 350 nm, and 4tUra was excited at all three of these UVA wavelengths.
Decay of the triplet state of 4tUra and 2,4dtUra to the ground state was monitored using the same excitation and detection setups but probing with an electronically triggered broadband white light source (Eos, Ultrafast Systems, LLC) that has been conveniently integrated into the Helios spectrometer. This probe source has a spectral window from B375 to 800 nm, a time resolution of about 400 ps, and a temporal window of up to 120 ms. […] Data were collected with the solutions under a constant nitrogen flow, and exciting at 350 nm with 3 mJ per pulse for 10 min, corresponding to less than 5% degradation.
For each data set, between 50 and 100 traces were selected across the entire range of probe wavelengths and globally analyzed in Igor Pro 6.32A (WaveMetrics, Inc.). […] 83 The uncertainties reported for the triplet population lifetimes are twice the standard deviation from the average fitting of at least three independent datasets (i.e., recorded on three different days). Triplet-triplet absorption spectra were extracted from the global fitting analysis.

[6] = Singlet oxygen quantum yield by phosphorescence at 1270 nm, thiouracil series; format: physicochemical
Method: Solutions of 4tUra, 2,4dtUra, and the singlet oxygen standard (phenalenone; ΦΔ=0.98) were prepared in acetonitrile, each with an absorbance of 0.3 at 355 nm in a 1×1 cm quartz cuvette. The solutions were purged with oxygen for 30 min, followed by the determination of quantum yields from back-toback measurements of the singlet oxygen phosphorescence intensity at 1270 nm. The O2-saturated solutions were excited at 355 nm (Spectra Physics GCR-150-30: 7 ns pulse width) and the phosphorescence at 1270 nm was detected with a NIR sensitive photomultiplier tube (H10330A-45, Hamamatsu).
The singlet oxygen (^1O2) quantum yields of 4tUra and 2,4dtUra were measured by monitoring the characteristic phosphorescence of ^1O2 at 1270 nm with nanosecond time resolution.

[7] = tested on: adenosine 5′-monophosphate (5′-AMP); experiment: Photoreactivity with adenosine 5′-monophosphate upon 365 nm irradiation in N2-saturated buffer; conditions: with 5′-AMP, 1:5 molar ratio (24 and 120 mM); 365 nm irradiation; N2-saturated aqueous buffer pH 7.4
Method: Aqueous phosphate-buffered saline solutions, pH 7.4, containing either 4tUra or 2,4dtUra were prepared with and without 5′-AMP and loaded into 1×1 cm septum-top quartz cuvettes. The concentrations of the thiouracil derivatives and 5′-AMP were […], respectively. These concentrations were chosen in order to favor the bimolecular photoreaction between the thiouracil derivative and 50-AMP, while simultaneously maintaining the absorbance of the solutions within the linear dynamic range limit of the UV-visible spectrophotometer used. All solutions were purged with ultrapure nitrogen for 30 min and kept under constant nitrogen flow throughout the irradiation period. An optical parametric amplifier (TOPAS, Quantronix/Light Conversion) pumped by our Libra laser system (described above) was used for monochromatic (±1 nm) irradiation of the samples. […] Absorbance changes in the thiouracil solutions, with and without 5′-AMP, were monitored periodically using UV-visible spectroscopy (Cary 100 Bio) during irradiation at 365 nm for up to 90 min and while stored in the dark for up to three and a half days.
In order to scrutinize the light-induced reactivity of these sensitizers toward biomolecules, aqueous phosphate-buffered saline solutions of either 4tUra or 2,4dtUra were prepared in the presence of the RNA monomer adenosine 5′-monophosphate (5′-AMP) at a 1:5 molar ratio. […] The experimental conditions were chosen in order to facilitate the extraction of relative photoreaction rates from the changes in the steady-state absorption spectra with irradiation time. […]

[8] = Steady-state absorption spectroscopy, thymine series; format: physicochemical; conditions: phosphate buffer solution at pH 7.4
From the text: 2-thiothymine (2tThy, 98% purity) was obtained from AK Scientific, 4-thiothymidine (4tThd, 99% purity) was obtained from Carbosynth Ltd., and 2-thiothymidine (2tThd) and 2,4-dithiothymine (2,4dtThy) were obtained from Sigma Aldrich. All compounds were used as received. The purity of these compounds was ensured by using fluorescence spectroscopy and by comparison with the published absorption maxima and their corresponding extinction coefficients. Phosphate buffer solutions were freshly prepared using 0.12 g of sodium dihydrogen phosphate and 0.089 g of disodium hydrogen phosphate dissolved in 100 mL of ultrapure water and adjusted to pH 7.4 using a 2 M NaOH solution. Steady-state absorption spectra were measured using a Cary 100 Bio spectrometer. All absorption spectra were corrected for the solvent background by subtraction of the absorption of the solvent.
Specifically, sulfur substitution of the C2 carbonyl in thymine results in about a 10 nm redshift in the absorption maximum, whereas substitution at the C4 position results in a redshift of about 70 nm. Remarkably, double-substitution results in about a 100 nm redshift of the lowest-energy absorption band of thymidine (ΔE=9905 cm^−1), without an appreciable change in the magnitude of the extinction coefficient at the corresponding wavelengths (1×10^4 M^−1 cm^−1). Replacement of an oxygen atom by a sulfur atom in a carbonyl bond is expected to shift the absorption spectrum to the red because the thiocarbonyl is weaker than the carbonyl bond and the excited electronic states in thiocarbonyl compounds are typically found at lower energies. However, the difference in bond strengths between a carbonyl and thiocarbonyl bond cannot solely explain the large spectral shift observed between 2tThy/2tThd and 4tThd. Furthermore, the redshift in the absorption spectrum of 2,4dtThy cannot simply be expressed as a linear combination of the absorption spectra of the 2tThy/2tThd and 4tThd derivatives. […] Glycosylation of 2tThy, generating 2tThd, results in a 2 nm redshift in the absorption maximum and about 2-fold increase in the molar absorptivity coefficients (FIG. 1B). The same effect has been previously documented in the natural bases and in other thiobases. Therefore, glycosylation of 2,4dtThy to form 2,4-dithiothymidine is expected to redshift the absorption spectrum slightly and to increase the molar absorptivity coefficients.

[9] = aqueous phosphate-buffered saline solution, pH 7.4

SMILES: Cc1cn([C@H]2C[C@H](O)[C@@H](CO)O2)c(=S)[nH]c1=O [2tThd, 2-thiothymidine]
ΦT triplet quantum yield [1]: 0.9 ± 0.1
τISC intersystem crossing lifetime ([2]; pH 7.4 phosphate buffer solution, probe 600 nm): 410 ± 60 fs

SMILES: Cc1c[nH]c(=S)[nH]c1=O [2tThy, 2-thiothymine]
ΦT triplet quantum yield [1]: 0.9 ± 0.1
intersystem crossing rate increase relative to Thd [2]: 1.2 fold
ΦΔ singlet oxygen quantum yield [3]: 0.36 ± 0.02

SMILES: O=c1cc[nH]c(=S)[nH]1 [2tUra, 2-thiouracil]
pKa [4]: 7.74
τISC intersystem crossing lifetime [5, 9]: 360 ± 30 fs

triplet-triplet extinction coefficient ([5]; at 600 nm, singlet depletion method): 3000 ± 600 M⁻¹ cm⁻¹
SMILES: O=c1[nH]ccc(=S)[nH]1 [4tUra, 4-thiouracil]
pKa [4]: 8.0
ΦΔ singlet oxygen quantum yield ([6]; O2-saturated acetonitrile, 355 nm excitation, phenalenone standard): 0.49±0.02
1O2 yield relative to uracil ([6]; excited to lowest-energy absorption band): 3.3 fold
1O2 yield ([6]; following UVA excitation): ca. 50%
τISC intersystem crossing lifetime [5, 9]: 240 ± 20 fs
κT triplet-state decay rate ([5]; aqueous phosphate-buffered saline solution, pH 7.4, 24 mM solutions, nitrogen-purged, 350 nm excitation): 1.7 ± 0.3 10^6 s^−1
photoreaction rate [7]: (0.39±0.04)×10^−9 M s^−1

maximum of lowest-energy absorption band [8]: ~267 nm
ε at maximum of lowest-energy absorption band [8]: ≈ 9.9×10^3 M^−1 cm^−1
SMILES: Cc1cn([C@H]2C[C@H](O)[C@@H](CO)O2)c(=O)[nH]c1=O [Thd, thymidine]
ΦT triplet quantum yield [1]: 0.014 ± 0.001
τISC intersystem crossing lifetime ([1]; recently reported value for thymidine): 760 fs
ΦΔ singlet oxygen quantum yield [3]: 0.07 ± 0.01
